In patent publication US11396501B2, “Heteroaryl compounds as CXCR4 inhibitors, composition and method using the same” (CGENETECH (SUZHOU, CHINA) CO., LTD., priority 2017, dated 2022):

Key:
CXCR4 [1] = biological target: T1, CXCR4 (Homo sapiens, UniProt P61073); test: FLIPR Tetra calcium mobilization assay; type: cell-based; conditions: Human CD4+ T-Cells; CXCL12 added; FLIPR Calcium 4 assay kit
Procedure: FLIPR Tetra Calcium Mobilization Assay The FLIPR Tetra calcium mobilization assay was performed by HD Bioscience. Briefly, The Molecular Devices, Fluorescent Imaging Plate Reader (FLIPR) Tetra was used in this assay. Excitation was achieved through unique placement of LED's within the instrument and emission captured by a CCD camera (EMCCD camera for FI and ICCD camera for luminescence). The homogeneous FLIPR Calcium 4 assay kit from Molecular Devices was used as the fluorescence reagent. Compounds were solubilized in 100% dimethyl sulfoxide (DMSO) to a concentration of 30 mM. A 10-point, 4-fold, intermediate dilution series was created in 100% DMSO with a top concentration of 4 mM and a bottom concentration of 0.01 μM. A near assay ready, direct dilution plate ([…]) was prepared from this compound dilution plate by transferring 1 μL of each dilution of compound in 100% DMSO to a Greiner #781201 plate. In addition, each […] plate also contained positive and negative control wells to define the upper and lower limits for the assay signal. The final assay concentration range of compound was 10 μM to 0.035 nM in 0.5% DMSO. Human CD^4+ T-Cells were isolated from human whole blood and subsequently activated and expanded using a CD3/CD28 expansion kit (Life Technologies). The cells were frozen in ThermoFisher-formulated Recovery Cell Culture Freezing Medium containing 10% Dimethyl sulfoxide (DMSO) and 10% Fetal Bovine Serum (FBS) (ThermoFisher Catalog No. 10100147). When used, cells were resuspended using room temperature 1× HBSS/20 mM HEPES/0.005% P-104 assay buffer, adjusted the volume of the suspension to achieve a cell concentration of 2.5×10^6 cells/mL. 2× Calcium 4 dye (20 μL/well) were added and the mixture were centrifuged briefly ( 10 s) and stopped when it reached 1000 rpm. The plates were allowed to equilibrate before compounds and CXCL12 were added to the plates. The raw data were analyzed using Abase. The percent (%) effect at each concentration of compound was calculated by Abase and was based on and relative to the amount of calcium produced in the positive and negative control wells contained within each assay plate. The concentrations and % effect values for tested compounds were plotted by Abase and the concentration of compound required for 50% effect (IC50) was determined with a four-parameter logistic dose response equation. FIGS. 3 and 4 summarize the results of Compounds A78 and A83 in the calcium mobilization assay.

CXCR4 [2] = biological target: T1, CXCR4; test: HPB-ALL CXCR4 competitive binding assay (12G5 binding assay); design: HPB-ALL cells were maintained in RPMI-1640 (Gibico) supplemented with 10% FBS (Hyclone); endogenous in cells; host or cells: HPB-ALL cells; conditions: HPB-ALL cells; competition with APC-conjugated anti-human CXCR4 clone 12G5 at its EC80; 4° C. for 3 h; FACS
Procedure: HPB-ALL CXCR4 Competitive Binding Assay
HPB-ALL cells were maintained in RPMI-1640 (Gibico) supplemented with 10% FBS (Hyclone). APC-conjugated anti-human CXCR4 was from Sungene. EC80 was first determined for 12G5 binding to CXCR4. Then the compounds for testing were added into 96-well plates serially diluted at a ratio of 1:3. Cells were washed once with ice-cold assay buffer (DPBS+2% HI-FBS) and then re-suspended in the same buffer at a final concentration of 1×10^6/mL. Cell suspension was then added into the wells and with the addition of APC-conjugated anti-human CXCR4 clone 12G5 at its EC80 determined. The mix of cell, compounds and APC-conjugated anti-human CXCR4 were incubated at 4° C. for 3 h before addition of 100 μL of 4% PFA. Cells were then washed once and resuspended in assay buffer and examined by FACS. The percent (%) effect at each concentration of compound was calculated and relative to the amount of calcium produced in the positive and negative control wells contained within each assay plate. The concentrations and % effect values for tested compounds were plotted and the concentration of compound required for 50% effect (IC50) was determined. Tables 2 summarize results of the CXCR4 competitive binding assay for selected compounds disclosed in the present disclosure. FIGS. 1-2 depict the IC50 curves of compounds A42 and A43.

T1 sequence (P61073 whole entry): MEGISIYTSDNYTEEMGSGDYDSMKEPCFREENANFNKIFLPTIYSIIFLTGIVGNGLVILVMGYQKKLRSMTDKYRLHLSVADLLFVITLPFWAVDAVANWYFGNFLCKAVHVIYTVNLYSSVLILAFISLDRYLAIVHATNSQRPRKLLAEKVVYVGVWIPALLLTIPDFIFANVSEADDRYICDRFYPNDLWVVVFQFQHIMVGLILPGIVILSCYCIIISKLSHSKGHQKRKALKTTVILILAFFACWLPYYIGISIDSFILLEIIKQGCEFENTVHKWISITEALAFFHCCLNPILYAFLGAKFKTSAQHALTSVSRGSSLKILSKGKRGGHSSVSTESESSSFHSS

Row | IC50 (CXCR4 [1]) | IC50 (CXCR4 [2]) | Compound
1 | 3.1 nM | 675 nM | Cc1nc(CN(C)c2cc(F)c(F)c3cccnc23)cc(N2CCN(C)CC2)n1 [Compound D20]
2 | 0.24 nM | 65 nM | Cc1nc(CN(C)c2cccc3cccnc23)cc(N2CCN(C)CC2)n1 [Compound D2, N-methyl-N-((2-methyl-6-(4-methylpiperazin-1-yl)pyrimidin-4-yl)methyl)quinolin-8-amine]
3 | 0.3 nM | 57 nM | Cc1nc(CN(C)c2c(C)ccc3cccnc23)cc(N2CCN(C)CC2)n1 [Compound D14]
4 | 1.2 nM | 18 nM | Cc1nc(CN(C)C2=C(F)CCc3cccnc32)cc(N2CCN(C)CC2)n1 [Compound D1, 7-fluoro-N-methyl-N-((2-methyl-6-(4-methylpiperazin-1-yl)pyrimidin-4-yl)methyl)-5,6-dihydroquinolin-8-amine]
5 | 16 nM | 151 nM | CCN(Cc1cc(N2CCN(C)CC2)nc(C)n1)c1cccc2cccnc12 [Compound D25]
6 | 0.14 nM | 55 nM | Cc1nc(CN(C)c2cccc3cccnc23)cc(N2CCN(C)[C@H](C)C2)n1 [Compound D4]
7 | 3.6 nM | 1170 nM | Cc1nc(CN(C)c2cccc3cccnc23)c(C#N)c(N2CCN(C)CC2)n1 [Compound D36]
8 | 9.3 nM | 3820 nM | Cc1nc(CN(CCCC(=O)O)c2cccc3cccnc23)cc(N2CCN(C)CC2)n1 [Compound D30, 4-(((2-methyl-6-(4-methylpiperazin-1-yl)pyrimidin-4-yl)methyl)(quinolin-8-yl)amino)butanoic acid]
9 | 0.21 nM | 338 nM | Cc1nc(CN(CCCCN)c2cccc3cccnc23)cc(N2CCN(C)CC2)n1 [Compound D28]

The remaining lines, values behind:

Row | Compound | IC50 (CXCR4 [1]) | IC50 (CXCR4 [2])
10 | CN1CCCN(c2cc(CN(C)C3CCCc4cccnc43)ncn2)CC1 (stereo not shown) [Compound A22] | 3.4 nM | 32 nM
11 | Cc1nc(CN(C)[C@H]2CCCc3cccnc32)cc(N2CCN(C)CC2)n1 [Compound A42] | 0.021 nM | 9.8 nM
12 | CN1CCN(c2cc(CN(C)C3CCCc4cccnc43)ncn2)CC1 (stereo not shown) [Compound A1, N-methyl-N-((6-(4-methylpiperazin-1-yl)pyrimidin-4-yl)methyl)-5,6,7,8-tetrahydroquinolin-8-amine] | 4.5 nM | 45 nM
13 | Cc1nc(CN(C)[C@@H](C)c2ccccn2)cc(N2CCN(C)CC2)n1 [Compound A75, (S)-N-methyl-N-((2-methyl-6-(4-methylpiperazin-1-yl)pyrimidin-4-yl)methyl)-1-(pyridin-2-yl)ethan-1-amine] | 0.09 nM | 15 nM
14 | Cc1nc(CN(C)[C@H]2CCCc3cccnc32)c(C)c(N2CCN(C)CC2)n1 [Compound A61] | 0.024 nM | 8.8 nM
